The values below come from ChEMBL document CHEMBL4406863, “Effective Virtual Screening Strategy toward heme-containing proteins: Identification of novel IDO1 inhibitors” (Eur J Med Chem, 2019).

Data set [1] addresses Indoleamine 2,3-dioxygenase 1 (Homo sapiens, UniProt P14902). Description: Inhibition of IDO1 in IFN-gamma stimulated human HeLa cells assessed as reduction in kynurenine production using L-tryptophan as substrate incubated for 24 hrs. Format: cell-based.
A short description of data set [2]: Cytotoxicity against human HeLa cells assessed as survival rate at 30 uM incubated for 24 hrs by MTT assay relative to control. Format: cell-based. Particulars: read-out: Activity.

Indoleamine 2,3-dioxygenase 1, sequence (P14902 whole entry): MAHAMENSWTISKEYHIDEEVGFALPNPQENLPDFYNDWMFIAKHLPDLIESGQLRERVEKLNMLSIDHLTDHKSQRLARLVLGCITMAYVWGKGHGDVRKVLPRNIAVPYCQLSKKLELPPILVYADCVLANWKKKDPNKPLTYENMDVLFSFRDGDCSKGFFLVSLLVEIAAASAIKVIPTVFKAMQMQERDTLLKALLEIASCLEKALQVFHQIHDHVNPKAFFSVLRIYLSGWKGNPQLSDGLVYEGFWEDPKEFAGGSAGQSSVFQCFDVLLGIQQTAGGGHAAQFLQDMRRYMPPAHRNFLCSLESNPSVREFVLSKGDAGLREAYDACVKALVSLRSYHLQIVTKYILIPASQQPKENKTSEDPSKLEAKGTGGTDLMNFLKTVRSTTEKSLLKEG

The IC50 is the midpoint of a concentration-inhibition curve. Regarding `CCNC(=O)C(=O)N/N=C/c1c(O)ccc2ccccc12`, the IC50 in data set [1] was more than 30 µM. Also, the viability at 24 h, 30 µM in data set [2] came to 102%.

As to `Oc1ccc2ccccc2c1/C=N/Nc1nccs1`, in data set [1], the IC50 was more than 30 µM. In addition, the viability at 24 h, 30 µM in data set [2] was determined as 99%.

Regarding `COc1ccccc1N(CC(=O)N/N=C/c1c(O)ccc2ccccc12)S(C)(=O)=O`, in data set [1], the IC50 was more than 30 µM. In addition, the viability at 24 h, 30 µM in data set [2] stood at 89%.

As to `COc1cccc(NCc2nnc3n2N=C(c2ccc(Br)cc2)CS3)c1`, the IC50 in data set [1] amounted to 20.6 µM. For the same compound, the viability at 24 h, 30 µM in data set [2] worked out at 101%.

Take `COc1cccc(NCc2nnc3n2N=C(c2cccc(OC)c2)CS3)c1`: the IC50 in data set [1] is more than 30 µM. Further, the viability at 24 h, 30 µM in data set [2] came to 104%.

For `NS(=O)(=O)c1ccc(NC(=O)Cn2cnc3scc(-c4ccco4)c3c2=O)cc1`, the viability at 24 h, 30 µM in data set [2] was found to be 77%.

For the compound `NS(=O)(=O)NCCNc1nonc1C(=NO)Nc1ccc(F)c(Br)c1` [EPACADOSTAT], the viability at 24 h, 30 µM in data set [2] came to 92%.

As for `COc1ccc(NC(=O)Cn2cnc3scc(-c4ccc(OC)c(OC)c4)c3c2=O)cc1`, the IC50 in data set [1] is 5.6 µM. For the same compound, in data set [2], the viability at 24 h, 30 µM worked out at 101%.

Turning to `CN(C)c1ccc(/C=C(/NC(=O)c2ccccc2Cl)C(=O)N/N=C/c2c(O)ccc3ccccc23)cc1`, the viability at 24 h, 30 µM in data set [2] is 66%.

As to `COc1ccc(CC(=O)N/N=C/c2c(O)ccc3ccccc23)cc1`, the IC50 in data set [1] is more than 30 µM. Further, the viability at 24 h, 30 µM in data set [2] came out at 91%.

Consider `Cc1ccc(C2=Nn3c(CNc4ccc(F)cc4)nnc3SC2)cc1`, for which the viability at 24 h, 30 µM in data set [2] came to 110%.

As for `COc1ccccc1C(=O)N/N=C/c1c(O)ccc2ccccc12`, the half-maximal inhibitory concentration (IC50) in data set [1] was found to be 11.3 µM. Further, the viability at 24 h, 30 µM in data set [2] was 100%.

Regarding `CN(C)c1ccc(C(=O)N/N=C/c2c(O)ccc3ccccc23)cc1`, in data set [1], the IC50 was determined as 21.1 µM. Besides, in data set [2], the viability at 24 h, 30 µM was 114%.

For `Cc1sc2ncn(CC(=O)NCc3ccccc3)c(=O)c2c1-c1ccc(Br)cc1`, the viability at 24 h, 30 µM in data set [2] amounted to 84%.

Consider `O=C(N/N=C/c1c(O)ccc2ccccc12)C(=O)Nc1cccc(C(F)(F)F)c1`, for which, in data set [2], the viability at 24 h, 30 µM was 59%.

With `Cc1ccc(-c2csc3ncn(CC(=O)Nc4cccc5ccccc45)c(=O)c23)cc1`, the half-maximal inhibitory concentration (IC50) in data set [1] is 20.1 µM. The viability at 24 h, 30 µM in data set [2] came out at 99%.

In the case of `Cc1nc2ccccc2n1Cc1nnc2n1N=C(c1ccc(Cl)cc1)CS2`, the viability at 24 h, 30 µM in data set [2] amounted to 85%.

As for `O=C(Cn1cnc2scc(-c3ccc(F)cc3)c2c1=O)NC(=O)NCc1ccccc1`, the IC50 in data set [1] is more than 30 µM. The viability at 24 h, 30 µM in data set [2] amounted to 100%.

Regarding `O=C(Cc1ccc([N+](=O)[O-])cc1)N/N=C/c1c(O)ccc2ccccc12`, in data set [1], the IC50 came to 10.3 µM. The viability at 24 h, 30 µM in data set [2] was 106%.

As for `O=C(CSc1ccc(Cl)cc1)N/N=C/c1c(O)ccc2ccccc12`, the 50% inhibitory concentration (IC50) in data set [1] stood at 6 µM. Besides, the viability at 24 h, 30 µM in data set [2] stood at 106%.

Turning to `CCC(Nc1ccc(Cl)cc1C)C(=O)N/N=C/c1cccc2ccccc12` (configuration not stated), the IC50 in data set [1] was determined as 2.2 µM.

For `O=C(Cn1cnc2scc(-c3ccc(Cl)cc3)c2c1=O)NCc1ccco1`, the IC50 in data set [1] was found to be 12.4 µM. Also, the viability at 24 h, 30 µM in data set [2] is 108%.

In the case of `CCOc1ccc(NCc2nnc3n2N=C(c2cccs2)CS3)cc1`, the IC50 in data set [1] was more than 30 µM. Moreover, the viability at 24 h, 30 µM in data set [2] was found to be 101%.

Consider `c1ccc(C2=Nn3c(CN4CCc5ccccc54)nnc3SC2)cc1`, for which the IC50 in data set [1] is more than 30 µM. The viability at 24 h, 30 µM in data set [2] worked out at 98%.

As to `COc1ccccc1NCC(=O)N/N=C/c1c(O)ccc2ccccc12`, the IC50 in data set [1] stood at 8.6 µM. The viability at 24 h, 30 µM in data set [2] amounted to 114%.

For `Fc1ccc(C2=Nn3c(CNc4ccc5c(c4)OCO5)nnc3SC2)cc1`, the viability at 24 h, 30 µM in data set [2] was 100%.

`Cc1ccc(OCC(=O)N/N=C/c2c(O)ccc3ccccc23)c(C)c1`: the IC50 in data set [1] was more than 30 µM. In addition, the viability at 24 h, 30 µM in data set [2] amounted to 80%.

Consider `Cc1ccc(NCc2nnc3n2N=C(c2ccc(Cl)cc2)CS3)cc1`, for which, in data set [2], the viability at 24 h, 30 µM was found to be 100%.

Take `Cc1ccccc1NC(=O)c1cc2ccccc2c(/C=N/Nc2nc3ccccc3s2)c1O`: the viability at 24 h, 30 µM in data set [2] was 101%.
